According to paper PMC3472974, “The Bite of the Honeybee: 2-Heptanone Secreted from Honeybee Mandibles during a Bite Acts as a Local Anaesthetic in Insects and Mammals” (PLoS ONE, 2012):

Legend:
hNav1.2 channels = biological target: T1, hNav1.2 channels (Homo sapiens, UniProt Q99250); assay: Patch-clamp (PatchXpress 7000A) on transfected CHO cells, hNav1.2; format: cell-based; conditions: for IC50: CHO cells, n = 6, mean ± SEM, 2-H exposure limited to 3 min; for times less active than lidocaine: hNav1.2
T1 construct: expressed in transfected cells; host or cells: CHO-K1 (ATCC CCL-61)
Description: To test whether 2-H can act by blocking VGNaCs, the PatchXpress 7000A was used. Mammalian CHO (Chinese hamster ovary) transfected with ion hNav1.2 and hNav1.6 channels cDNAs (SCN2A and SCN8A genes) were exposed to 2-H under both tonic and phasic conditions. The mammalian CHO-K1 epithelial embryonic cell line (ATCC number CCL-61) from Cricetulus griseus was obtained from ATCC, Manassas, VA. CHO-K1 cells were transfected with either hNav1.2 or hNav1.6 channel cDNA (SCN2A and SCN8A genes, respectively) and were exposed to 2-H under both tonic and phasic conditions.
The effects of 2-H were evaluated on hNav1.2 at 0.73, 1.46, 2.19, and 2.92 mg/mL and on hNav1.6 channels at 0.1, 0.36, 0.73, and 1.46 mg/mL, with each concentration tested in at least six cells (n = 6). Cells were exposed to each concentration of 2-H and measurements of the inward current were obtained within the first 3 min of exposure. […] Since the PatchXpress has open cell chambers where the testing occurs, there is no way to hermetically seal the experiment.
Based on this analysis, we estimated the IC50.

Varroa destructor = assay: Gravitational reflex of Varroa mites after topical application; format: in vivo
Experimental: We tested 2-H on a far smaller arthropod that parasitizes honeybees, the mite, Varroa destructor. When 0.025 µL of 2-H was applied topically to the sternum of mites (n = 10) fixed ventral side up, the gravitational reflex–the rhythmic expansion of the thorax and abdomen [15]–was distorted (Fig. 3d). When the concentration was increased to 0.061 µL, the gravitational reflex completely malfunctioned and the Varroa mites (n = 10) were totally paralysed within 30–40 s (Fig. 3e) with no recovery, even after 12 h of observation. We applied larger concentrations of 2-H to the Varroa mites topically because the mites’ small size made it impossible to inject 2-H into the haemolymph.

rat = conditions: oral rat; no reference given; cited from earlier work
wax moth larvae (WML) = assay: GC-MS quantification of 2-H in wax moth larvae bitten by honeybees; format: in vivo, Galleria mellonella; conditions: extracted after full recovery, n = 10
Description: We measured the 2-H content of the following types of samples: a) isolated honeybee mandibular glands (n = 30); b) wax moth larvae (WML; body weight of around 0.01 g) that had been bitten by honeybees (n = 30) –2-H extracted immediately after paralysis; c) WML that had been bitten by honeybees (n = 10) –2-H extracted after full recovery; d) non-bitten WML (controls, n = 10).
To optimize the detection of 2-H, all samples were 1) treated with liquid nitrogen in order to stop any enzymatic process and ensure complete lyses of cell walls and then 2) extracted with ethanol. The extracts were centrifuged, filtered, and stored at −20°C until analysis.
Chromatographic analyses were carried out on a Hewlett Packard 6890 gas chromatographic model hyphenated to a Hewlett Packard 5973 mass selective detector using electron impact (70 eV) as the ionization source, further equipped with an Agilent 6890 autosampler. An HP 5MS (30 m×0.25 mm; film thickness 0.25 µm) column was used for the separations. Helium was used as the carrier gas (flow 0.8 ml/min). […] Thus, under the above chromatographic conditions, the Rt of 2-H was 8.47 min and the ions monitored at EI (70eV, full scan) were m/z 43, 58, 71, 85, 99 and 114. Quantification, however, was performed at Selected Ion Monitoring (SIM) mode and the ions were monitored at m/z 58 and 71. […]

T1 sequence (Q99250 whole entry): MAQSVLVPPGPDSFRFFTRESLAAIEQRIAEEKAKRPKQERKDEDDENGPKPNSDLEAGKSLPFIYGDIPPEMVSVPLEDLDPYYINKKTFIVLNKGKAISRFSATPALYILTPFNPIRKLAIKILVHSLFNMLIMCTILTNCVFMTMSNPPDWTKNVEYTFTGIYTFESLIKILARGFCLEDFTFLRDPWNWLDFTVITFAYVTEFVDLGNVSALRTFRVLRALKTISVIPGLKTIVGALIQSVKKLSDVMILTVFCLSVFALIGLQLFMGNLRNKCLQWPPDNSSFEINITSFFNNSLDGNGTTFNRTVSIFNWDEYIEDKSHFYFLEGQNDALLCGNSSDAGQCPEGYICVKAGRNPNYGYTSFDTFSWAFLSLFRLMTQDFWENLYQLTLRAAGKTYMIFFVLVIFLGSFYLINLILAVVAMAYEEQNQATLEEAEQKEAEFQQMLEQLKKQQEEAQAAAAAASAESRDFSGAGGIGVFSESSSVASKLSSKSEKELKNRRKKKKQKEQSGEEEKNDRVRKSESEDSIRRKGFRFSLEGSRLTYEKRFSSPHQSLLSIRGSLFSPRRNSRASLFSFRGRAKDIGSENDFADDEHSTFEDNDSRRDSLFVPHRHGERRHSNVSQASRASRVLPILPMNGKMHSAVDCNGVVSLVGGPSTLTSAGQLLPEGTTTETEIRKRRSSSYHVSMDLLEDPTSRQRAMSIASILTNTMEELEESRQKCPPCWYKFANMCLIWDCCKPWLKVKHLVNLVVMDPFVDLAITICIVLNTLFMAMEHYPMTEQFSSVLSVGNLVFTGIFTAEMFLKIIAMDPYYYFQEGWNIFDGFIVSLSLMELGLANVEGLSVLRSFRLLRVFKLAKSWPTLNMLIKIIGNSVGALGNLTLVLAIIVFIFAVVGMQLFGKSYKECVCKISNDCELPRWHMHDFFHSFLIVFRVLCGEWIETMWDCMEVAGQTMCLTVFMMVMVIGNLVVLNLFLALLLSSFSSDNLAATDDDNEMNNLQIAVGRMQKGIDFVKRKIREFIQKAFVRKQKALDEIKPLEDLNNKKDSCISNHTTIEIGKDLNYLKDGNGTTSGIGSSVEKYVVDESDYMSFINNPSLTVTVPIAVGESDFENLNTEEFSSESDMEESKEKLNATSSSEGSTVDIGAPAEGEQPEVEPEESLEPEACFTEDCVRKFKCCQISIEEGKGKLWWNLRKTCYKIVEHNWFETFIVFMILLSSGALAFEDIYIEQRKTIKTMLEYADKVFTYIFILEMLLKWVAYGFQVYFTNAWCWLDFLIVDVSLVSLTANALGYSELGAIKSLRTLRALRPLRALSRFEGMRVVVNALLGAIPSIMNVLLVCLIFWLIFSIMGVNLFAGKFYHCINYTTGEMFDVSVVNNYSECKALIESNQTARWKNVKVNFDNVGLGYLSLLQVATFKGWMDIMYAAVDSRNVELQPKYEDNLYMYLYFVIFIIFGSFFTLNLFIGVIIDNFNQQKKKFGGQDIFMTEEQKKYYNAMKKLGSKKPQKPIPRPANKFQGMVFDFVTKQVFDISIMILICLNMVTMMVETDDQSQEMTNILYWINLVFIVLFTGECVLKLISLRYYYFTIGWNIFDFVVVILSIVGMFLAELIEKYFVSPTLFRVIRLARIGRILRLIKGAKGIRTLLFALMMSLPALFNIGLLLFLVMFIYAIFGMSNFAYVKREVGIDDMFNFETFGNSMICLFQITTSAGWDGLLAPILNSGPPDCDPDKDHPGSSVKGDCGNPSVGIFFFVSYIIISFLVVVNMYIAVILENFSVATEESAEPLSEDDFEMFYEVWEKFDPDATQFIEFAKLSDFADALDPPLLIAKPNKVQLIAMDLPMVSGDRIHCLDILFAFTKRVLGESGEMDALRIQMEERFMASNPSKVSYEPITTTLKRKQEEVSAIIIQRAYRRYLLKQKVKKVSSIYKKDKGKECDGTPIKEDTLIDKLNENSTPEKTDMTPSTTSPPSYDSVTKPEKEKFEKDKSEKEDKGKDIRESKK

**Q.** For `CCCCCC(C)=O` [2-H, 2-heptanone], which IC50 (hNav1.2 channels; Phasic Experiment) is on record?
**A.** 6.57 mM

**Q.** And the IC50 (hNav1.2 channels; Tonic Experiment)?
**A.** 9.02 mM

**Q.** And the “times less active than lidocaine” value (hNav1.2 channels; phasic experiments)?
**A.** 7.50 times

**Q.** What about the “times less active than lidocaine” value (hNav1.2 channels; tonic experiments) of the same compound?
**A.** 3.97 times

**Q.** What about the “effect on gravitational reflex” value (Varroa destructor; 0.025 µL applied topically to the sternum, n = 10) of the same compound?
**A.** distorted

**Q.** And the recovery from paralysis (Varroa destructor; 0.061 µL applied topically, 12 h of observation)?
**A.** no recovery

**Q.** What about the “acute LD50” value (rat) of the same compound?
**A.** 1670 mg/kg

**Q.** What about the “2-H detected in fully-recovered WML” value (wax moth larvae (WML)) of the same compound?
**A.** no 2-H
